Assays:
[1] = solid-state stability with respect to hygroscopicity / humidity; assay type: physicochemical
[2] = target: dopamine D3 receptor (Homo sapiens, UniProt P35462); assay: affinity for dopamine D3 receptors; assay type: binding
[3] = target: serotonin 5-HT6 receptor (Homo sapiens, UniProt P50406); assay: antagonist affinity for serotonin 5-HT6 receptor; assay type: binding
[4] = target: dopamine D2 receptor (Homo sapiens, UniProt P14416); assay: affinity for dopamine D2 receptors; assay type: binding
Sequence of dopamine D2 receptor (P14416 whole entry): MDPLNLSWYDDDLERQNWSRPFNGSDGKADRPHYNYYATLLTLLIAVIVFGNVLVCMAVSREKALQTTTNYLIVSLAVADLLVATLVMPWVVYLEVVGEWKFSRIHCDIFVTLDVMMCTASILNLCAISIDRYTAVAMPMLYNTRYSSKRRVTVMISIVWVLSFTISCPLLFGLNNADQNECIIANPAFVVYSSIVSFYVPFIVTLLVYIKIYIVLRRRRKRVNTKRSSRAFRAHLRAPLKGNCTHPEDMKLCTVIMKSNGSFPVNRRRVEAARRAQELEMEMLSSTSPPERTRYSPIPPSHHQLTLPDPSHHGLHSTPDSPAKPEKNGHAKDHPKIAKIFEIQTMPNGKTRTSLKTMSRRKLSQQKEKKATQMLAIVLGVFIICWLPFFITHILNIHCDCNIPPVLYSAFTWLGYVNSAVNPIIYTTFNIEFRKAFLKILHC

[5] = target: T1, serotonin 5-HT2C receptor (Homo sapiens, UniProt P28335); assay: antagonist affinity for serotonin 5-HT2C receptor; assay type: binding
T1 sequence (P28335 33-458): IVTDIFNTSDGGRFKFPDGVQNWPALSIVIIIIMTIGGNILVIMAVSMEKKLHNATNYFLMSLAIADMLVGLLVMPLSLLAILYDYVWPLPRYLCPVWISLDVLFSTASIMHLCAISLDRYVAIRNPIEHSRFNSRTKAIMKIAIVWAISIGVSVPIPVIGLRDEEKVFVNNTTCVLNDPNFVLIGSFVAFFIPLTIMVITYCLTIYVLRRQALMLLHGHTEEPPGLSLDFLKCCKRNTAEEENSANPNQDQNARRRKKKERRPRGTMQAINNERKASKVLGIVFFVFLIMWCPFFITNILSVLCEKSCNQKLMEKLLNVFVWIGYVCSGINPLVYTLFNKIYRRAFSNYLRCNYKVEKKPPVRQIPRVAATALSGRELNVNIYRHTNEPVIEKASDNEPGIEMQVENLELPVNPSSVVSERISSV

Sequence of dopamine D3 receptor (P35462 whole entry, species assumed): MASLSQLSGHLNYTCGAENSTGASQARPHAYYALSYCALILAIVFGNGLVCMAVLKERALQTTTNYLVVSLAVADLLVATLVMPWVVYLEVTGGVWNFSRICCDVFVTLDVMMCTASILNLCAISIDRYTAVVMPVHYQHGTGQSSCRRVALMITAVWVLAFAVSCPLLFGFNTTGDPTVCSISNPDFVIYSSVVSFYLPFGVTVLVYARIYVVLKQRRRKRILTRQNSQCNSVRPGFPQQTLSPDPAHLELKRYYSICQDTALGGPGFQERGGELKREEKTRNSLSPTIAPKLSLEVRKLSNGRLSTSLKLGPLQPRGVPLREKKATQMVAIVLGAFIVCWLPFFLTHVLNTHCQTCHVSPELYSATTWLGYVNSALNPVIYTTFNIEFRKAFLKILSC
Sequence of serotonin 5-HT6 receptor (P50406 whole entry): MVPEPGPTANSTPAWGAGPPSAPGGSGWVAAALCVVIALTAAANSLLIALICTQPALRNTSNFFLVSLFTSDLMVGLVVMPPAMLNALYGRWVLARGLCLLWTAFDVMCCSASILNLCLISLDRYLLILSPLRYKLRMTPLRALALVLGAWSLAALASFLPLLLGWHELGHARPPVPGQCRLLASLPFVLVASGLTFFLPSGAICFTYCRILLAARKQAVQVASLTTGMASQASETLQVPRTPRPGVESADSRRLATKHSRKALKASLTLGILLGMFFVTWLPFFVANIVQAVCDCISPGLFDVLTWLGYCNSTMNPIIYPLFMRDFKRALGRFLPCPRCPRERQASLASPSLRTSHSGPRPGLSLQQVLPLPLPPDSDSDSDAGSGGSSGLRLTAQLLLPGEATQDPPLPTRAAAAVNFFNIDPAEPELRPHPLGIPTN

Row | Structure (SMILES) | stability with respect to hygroscopicity and loss of water [1] | changes when exposed to very high humidity ([1]; very high humidity) | affinity for dopamine D3 receptor [2] | affinity for dopamine D3 relative to D2 receptors ([2]; D3 versus D2) | antagonist affinity for serotonin 5-HT6 receptor [3] | affinity for dopamine D2 receptor [4] | antagonist affinity for serotonin 5-HT2C receptor [5]
1 | COc1cc2c(cc1S(=O)(=O)c1ccc(OCc3ccc(Cl)cc3)cc1)CCN(C)CC2.O=C(O)/C=C\C(=O)O [Form 2 maleate anhydrate, 7-[4-(4-Chlorobenzyloxy)benzenesulfonyl]-8-methoxy-3-methyl-2,3,4,5-tetrahydro-1H-3-benzazepinium Maleate] | particular stability | reversible changes | – | – | – | – | –
2 | COc1cc2c(cc1S(=O)(=O)c1ccc(OCc3ccc(Cl)cc3)cc1)CCN(C)CC2.O=C(O)/C=C\C(=O)O [Form 2 salt, 7-[4-(4-Chlorobenzyloxy)benzenesulfonyl]-8-methoxy-3-methyl-2,3,4,5-tetrahydro-1H-3-benzazepinium maleate] | – | – | exhibit affinity | greater affinity for dopamine D3 than for D2 receptors | antagonist affinity | exhibit affinity | antagonist affinity
